{"source": "patent US20060246106A1", "about": "“Infection resistant medical implants” (priority 2005, published 2006)", "key": {"[1]": {"experiment": "elution rate: rifampicin/tobramycin content remaining on the graft", "format": "in vivo", "details": "graft harvested from dog, one line per dog; for concentration at 7 days / concentration at 14 days / concentration at 21 days: dog, explanted graft, other: graft implanted end to end in the infrarenal aorta", "experimental": "Two grafts were harvested after week 1, two grafts after week 2 and the final two grafts were harvested after week 3. Immediately after harvesting, the grafts were prepared for antibiotic analysis. […] The graft samples required the rifampicin to be extracted from the graft material. The extraction procedure was as follows. A volume of methanol equivalent to 3 times the dry weight of the graft was added. […] The supernatant was then injected directly into the HPLC. […] The graft samples required the tobramycin to be extracted from the graft material. The extraction procedure was as follows. […] The supernatant was then injected directly into the PFIA. The extraction was repeated on the same graft sample to ensure that all the tobramycin had been extracted."}, "[2]": {"details": "dog, in vivo", "procedure": "(§1) Serum samples were collected from the dogs at the same time as the samples for liver and kidney function tests.\n(§2) The analytical method for graft samples and serum samples was identical. The method used a HPLC system with a Hypersil 5 ODS column with UV detection at a wavelength of 254 nm. The mobile phase used was a 70:30 0.2M phosphate buffer pH 6.0: acetonitrile. The limit of detection for this method is 0.1 mg/Kg graft or 0.1 mg/litre serum.\n(§3) These samples were mixed 50:50 with methanol and left to stand for 1 minute. After this time the solution was centrifuged for 5 minutes at maximum speed in a Microcentaur centrifuge. The supernatant was then used for analysis.\n(§4) The analytical method for serum samples and graft samples was identical. The technique used to measure the tobramycin was Polarisation FluoroImmuno Assay (PFIA) using an Abbott FLX instrument using the reverse dilution protocol with a sample volume of 5 μl. The limit of detection for this method is 0.4 mg/Kg graft or 0.4 mg/litre serum.\n(§5) The serum samples were analysed directly using the Abbot FLX instrument."}, "[3]": {"system": "Escherichia coli", "experiment": "MIC/MBC, antibiotic dilutions in Mueller-Hinton Broth", "format": "cell-based", "details": "E. coli, antibiotic alone", "experimental": "The term “MIC” refers to the lowest concentration of antibiotic that inhibits in vitro bacterial growth. The term “MBC” refers to the lowest concentration of antibiotic that totally kills 99.9% of the inoculum. The principle of the test is to add dilutions of an antibiotic to Mueller-Hinton Broth and a standard concentration of the inoculum. Tubes are incubated overnight and read visually for turbidity. The lowest concentration showing no visible growth is the MIC. To establish the MBC broth cultures showing no visible growth are sub-cultured onto appropriate agar and incubated to determine if the organism has been killed."}, "[4]": {"experiment": "in vivo", "details": "dog", "procedure": "as §1, §2, §3, §4, §5"}}, "note": "Read-outs that look alike come from different tables or passages of the source.", "data": [{"smiles": "CO[C@H]1/C=C/O[C@@]2(C)Oc3c(C)c(O)c4c(O)c(c(/C=N/N5CCN(C)CC5)c(O)c4c3C2=O)NC(=O)/C(C)=C\\C=C\\[C@H](C)[C@H](O)[C@@H](C)[C@@H](O)[C@@H](C)[C@H](OC(C)=O)[C@@H]1C", "note": "[Rifampicin, rifampicin]", "values": [{"measurement": "concentration at 7 days", "setting": "[1]; Implant Duration 7 Days, read-out: Rifampicin Content, 1st Extraction", "value": 890, "unit": "ng/g"}, {"measurement": "concentration at 7 days", "setting": "[1]; Implant Duration 7 Days, read-out: Rifampicin Content, 2nd Extraction", "value": "< 100", "unit": "ng/g"}, {"measurement": "concentration at 7 days", "setting": "[1]; Implant Duration 7 Days, read-out: Rifampicin Content, Total", "value": 890, "unit": "ng/g"}, {"measurement": "concentration at 14 days", "setting": "[1]; Implant Duration 14 Days, read-out: Rifampicin Content, 1st Extraction", "value": 730, "unit": "ng/g"}, {"measurement": "concentration at 14 days", "setting": "[1]; Implant Duration 14 Days, read-out: Rifampicin Content, 2nd Extraction", "value": "< 100", "unit": "ng/g"}, {"measurement": "concentration at 14 days", "setting": "[1]; Implant Duration 14 Days, read-out: Rifampicin Content, Total", "value": 730, "unit": "ng/g"}, {"measurement": "concentration at 21 days", "setting": "[1]; Implant Duration 21 Days, read-out: Rifampicin Content, 1st Extraction", "value": 340, "unit": "ng/g"}, {"measurement": "concentration at 21 days", "setting": "[1]; Implant Duration 21 Days, read-out: Rifampicin Content, 2nd Extraction", "value": "< 100", "unit": "ng/g"}, {"measurement": "concentration at 21 days", "setting": "[1]; Implant Duration 21 Days, read-out: Rifampicin Content, Total", "value": 340, "unit": "ng/g"}, {"measurement": "Rifampicin Content, 1st Extraction", "setting": "[1]; Implant Duration 7 Days", "value": 0.94, "unit": "mg/Kg graft"}, {"measurement": "Rifampicin Content, 2nd Extraction", "setting": "[1]; Implant Duration 7 Days", "value": "<0.1", "unit": "mg/Kg graft"}, {"measurement": "Rifampicin Content, Total", "setting": "[1]; Implant Duration 7 Days", "value": 0.94, "unit": "mg/Kg graft"}, {"measurement": "Rifampicin Content, 1st Extraction", "setting": "[1]; Implant Duration 14 Days", "value": 1.24, "unit": "mg/Kg graft"}, {"measurement": "Rifampicin Content, 2nd Extraction", "setting": "[1]; Implant Duration 14 Days", "value": "<0.1", "unit": "mg/Kg graft"}, {"measurement": "Rifampicin Content, Total", "setting": "[1]; Implant Duration 14 Days", "value": 1.24, "unit": "mg/Kg graft"}, {"measurement": "Rifampicin Content, 1st Extraction", "setting": "[1]; Implant Duration 21 Days", "value": 0.52, "unit": "mg/Kg graft"}, {"measurement": "Rifampicin Content, 2nd Extraction", "setting": "[1]; Implant Duration 21 Days", "value": "<0.1", "unit": "mg/Kg graft"}, {"measurement": "Rifampicin Content, Total", "setting": "[1]; Implant Duration 21 Days", "value": 0.52, "unit": "mg/Kg graft"}, {"measurement": "quantity of rifampicin equated to an average human", "setting": "[2]; 1 day", "value": 1.15, "unit": "mg"}, {"measurement": "MBC", "setting": "[3]", "value": 32.5, "unit": "mg/L"}, {"measurement": "MIC", "setting": "[3]", "value": 16.2, "unit": "mg/L"}, {"measurement": "concentration at 1 day", "setting": "[4]", "value": 0.23, "unit": "µg/mL"}, {"measurement": "concentration at 3 day", "setting": "[4]", "value": "< 0.1", "unit": "µg/mL"}, {"measurement": "concentration at 7 day", "setting": "[4]", "value": "< 0.1", "unit": "µg/mL"}, {"measurement": "concentration at 14 day", "setting": "[4]", "value": "< 0.1", "unit": "µg/mL"}, {"measurement": "concentration at 21 day", "setting": "[4]", "value": "< 0.1", "unit": "µg/mL"}]}, {"smiles": "NC[C@H]1O[C@H](O[C@H]2[C@H](O)[C@@H](O[C@H]3O[C@H](CO)[C@@H](O)[C@H](N)[C@H]3O)[C@H](N)C[C@@H]2N)[C@H](N)C[C@@H]1O", "note": "[Tobramycin, tobramycin]", "values": [{"measurement": "concentration at 7 days", "setting": "[1]; Implant Duration 7 Days, read-out: Tobramycin Content, 1st Extraction", "value": 4800, "unit": "ng/g"}, {"measurement": "concentration at 7 days", "setting": "[1]; Implant Duration 7 Days, read-out: Tobramycin Content, 2nd Extraction", "value": "< 400", "unit": "ng/g"}, {"measurement": "concentration at 7 days", "setting": "[1]; Implant Duration 7 Days, read-out: Tobramycin Content, Total", "value": 4800, "unit": "ng/g"}, {"measurement": "concentration at 14 days", "setting": "[1]; Implant Duration 14 Days, read-out: Tobramycin Content, 1st Extraction", "value": 510, "unit": "ng/g"}, {"measurement": "concentration at 14 days", "setting": "[1]; Implant Duration 14 Days, read-out: Tobramycin Content, 2nd Extraction", "value": "< 400", "unit": "ng/g"}, {"measurement": "concentration at 14 days", "setting": "[1]; Implant Duration 14 Days, read-out: Tobramycin Content, Total", "value": 510, "unit": "ng/g"}, {"measurement": "concentration at 21 days", "setting": "[1]; Implant Duration 21 Days, read-out: Tobramycin Content, 1st Extraction", "value": "< 400", "unit": "ng/g"}, {"measurement": "concentration at 21 days", "setting": "[1]; Implant Duration 21 Days, read-out: Tobramycin Content, 2nd Extraction", "value": "< 400", "unit": "ng/g"}, {"measurement": "concentration at 21 days", "setting": "[1]; Implant Duration 21 Days, read-out: Tobramycin Content, Total", "value": "< 400", "unit": "ng/g"}, {"measurement": "Tobramycin Content, 1st Extraction", "setting": "[1]; Implant Duration 7 Days", "value": 3.96, "unit": "mg/Kg graft"}, {"measurement": "Tobramycin Content, 2nd Extraction", "setting": "[1]; Implant Duration 7 Days", "value": "<0.4", "unit": "mg/Kg graft"}, {"measurement": "Tobramycin Content, Total", "setting": "[1]; Implant Duration 7 Days", "value": 3.96, "unit": "mg/Kg graft"}, {"measurement": "Tobramycin Content, 1st Extraction", "setting": "[1]; Implant Duration 14 Days", "value": "<0.4", "unit": "mg/Kg graft"}, {"measurement": "Tobramycin Content, 2nd Extraction", "setting": "[1]; Implant Duration 14 Days", "value": "<0.4", "unit": "mg/Kg graft"}, {"measurement": "Tobramycin Content, Total", "setting": "[1]; Implant Duration 14 Days", "value": "<0.4", "unit": "mg/Kg graft"}, {"measurement": "Tobramycin Content, 1st Extraction", "setting": "[1]; Implant Duration 21 Days", "value": "<0.4", "unit": "mg/Kg graft"}, {"measurement": "Tobramycin Content, 2nd Extraction", "setting": "[1]; Implant Duration 21 Days", "value": "<0.4", "unit": "mg/Kg graft"}, {"measurement": "Tobramycin Content, Total", "setting": "[1]; Implant Duration 21 Days", "value": "<0.4", "unit": "mg/Kg graft"}, {"measurement": "tobramycin present in the serum of the test dogs", "setting": "[2]", "value": "no detectable amount"}, {"measurement": "Tobramycin Content (serum)", "setting": "[2]; 1 day", "value": "<0.4", "unit": "mg/litre serum"}, {"measurement": "Tobramycin Content (serum)", "setting": "[2]; 3 day", "value": "<0.4", "unit": "mg/litre serum"}, {"measurement": "Tobramycin Content (serum)", "setting": "[2]; 7 day", "value": "<0.4", "unit": "mg/litre serum"}, {"measurement": "Tobramycin Content (serum)", "setting": "[2]; 14 day", "value": "<0.4", "unit": "mg/litre serum"}, {"measurement": "Tobramycin Content (serum)", "setting": "[2]; 21 day", "value": "<0.4", "unit": "mg/litre serum"}, {"measurement": "MBC", "setting": "[3]", "value": 6.25, "unit": "mg/L"}, {"measurement": "MIC", "setting": "[3]", "value": 3.12, "unit": "mg/L"}, {"measurement": "concentration at 1 day", "setting": "[4]", "value": "< 0.4", "unit": "µg/mL"}, {"measurement": "concentration at 3 day", "setting": "[4]", "value": "< 0.4", "unit": "µg/mL"}, {"measurement": "concentration at 7 day", "setting": "[4]", "value": "< 0.4", "unit": "µg/mL"}, {"measurement": "concentration at 14 day", "setting": "[4]", "value": "< 0.4", "unit": "µg/mL"}, {"measurement": "concentration at 21 day", "setting": "[4]", "value": "< 0.4", "unit": "µg/mL"}]}]}
